Measurements taken from patent US20210070748A1, “INHIBITORS OF BRUTONS TYROSINE KINASE” (Pharmacyclics LLC, priority 2015, published 2021).

Key:
JAK3 = target: T1, JAK3 (Homo sapiens, UniProt P52333); experiment: Inhibition of a panel of kinases, in vitro HotSpot kinase assay: JAK3; assay type: biochemical; details: D-compounds panel data; 1 μM ATP; read-out: IC50 JAK3
T1 sequence (P52333 1-1124): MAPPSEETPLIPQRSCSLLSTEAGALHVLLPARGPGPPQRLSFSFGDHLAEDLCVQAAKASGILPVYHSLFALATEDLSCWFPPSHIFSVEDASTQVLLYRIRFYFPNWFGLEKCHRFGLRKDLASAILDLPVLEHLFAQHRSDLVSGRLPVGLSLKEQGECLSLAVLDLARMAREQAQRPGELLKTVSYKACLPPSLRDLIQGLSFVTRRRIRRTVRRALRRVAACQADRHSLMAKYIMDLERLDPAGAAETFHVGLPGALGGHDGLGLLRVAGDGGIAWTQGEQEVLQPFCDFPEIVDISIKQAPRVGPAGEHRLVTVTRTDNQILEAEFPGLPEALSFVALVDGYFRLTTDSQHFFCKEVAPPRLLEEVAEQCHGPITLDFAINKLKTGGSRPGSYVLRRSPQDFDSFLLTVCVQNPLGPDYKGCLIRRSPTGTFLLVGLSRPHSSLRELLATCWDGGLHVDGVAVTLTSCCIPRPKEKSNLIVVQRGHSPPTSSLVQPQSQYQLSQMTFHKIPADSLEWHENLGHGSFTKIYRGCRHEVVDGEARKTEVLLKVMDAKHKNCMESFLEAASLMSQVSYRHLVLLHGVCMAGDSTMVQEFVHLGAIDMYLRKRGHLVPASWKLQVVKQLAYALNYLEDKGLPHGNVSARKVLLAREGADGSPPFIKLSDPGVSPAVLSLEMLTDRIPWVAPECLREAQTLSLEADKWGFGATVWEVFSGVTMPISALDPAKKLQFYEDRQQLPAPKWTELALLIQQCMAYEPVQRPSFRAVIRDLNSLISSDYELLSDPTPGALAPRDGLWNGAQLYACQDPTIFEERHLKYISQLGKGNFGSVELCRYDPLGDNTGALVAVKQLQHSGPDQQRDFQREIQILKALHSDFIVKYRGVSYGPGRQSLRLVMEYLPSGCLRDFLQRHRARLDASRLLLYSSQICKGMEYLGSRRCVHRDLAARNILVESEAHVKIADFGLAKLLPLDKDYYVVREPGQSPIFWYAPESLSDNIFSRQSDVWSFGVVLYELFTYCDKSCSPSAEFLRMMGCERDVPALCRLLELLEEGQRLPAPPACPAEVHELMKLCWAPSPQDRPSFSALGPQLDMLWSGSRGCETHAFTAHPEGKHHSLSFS

LCK = LCK (Homo sapiens, UniProt P06239); experiment: Inhibition of a panel of kinases, in vitro HotSpot kinase assay: LCK; assay type: biochemical; details: D-compounds panel data; 1 μM ATP; read-out: IC50 LCK
LCK, sequence (P06239 whole entry): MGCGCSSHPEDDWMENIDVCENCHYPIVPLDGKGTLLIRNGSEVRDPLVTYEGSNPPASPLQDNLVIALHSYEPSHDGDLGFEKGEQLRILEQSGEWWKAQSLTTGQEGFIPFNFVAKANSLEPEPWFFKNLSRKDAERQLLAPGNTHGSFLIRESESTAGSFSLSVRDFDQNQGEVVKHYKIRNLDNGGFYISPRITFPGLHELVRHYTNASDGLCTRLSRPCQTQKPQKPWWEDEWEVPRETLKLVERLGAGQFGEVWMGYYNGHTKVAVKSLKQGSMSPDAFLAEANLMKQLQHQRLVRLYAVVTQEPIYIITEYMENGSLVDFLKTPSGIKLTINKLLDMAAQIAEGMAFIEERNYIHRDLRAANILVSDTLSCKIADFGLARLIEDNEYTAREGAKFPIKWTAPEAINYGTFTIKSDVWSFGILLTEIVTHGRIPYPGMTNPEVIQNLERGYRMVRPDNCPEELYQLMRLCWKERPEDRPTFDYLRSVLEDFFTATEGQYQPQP

| IC50 (JAK3) [µM] | IC50 (LCK) [µM] | Compound |
| --- | --- | --- |
| 0.1 to 1 | 0.1 to 1 | C[C@@H]1[C@H](NC(=O)c2ccc(C3CC3)cc2F)CCCN1c1cnc(C(N)=O)c(Nc2ccc(N3CCN(C4CCCC4)CC3)cc2)n1 [Example D-5, 3-{[4-(4-cyclopentylpiperazin-1-yl)phenyl]amino}-5-[(2R,3R)-3-(4-cyclopropyl-2-fluorobenzamido)-2-methylpiperidin-1-yl]pyrazine-2-carboxamide] |
| 1 to 10 | 0.01 to 0.1 | C[C@@H]1[C@H](n2ccc3cc(C4CC4)ccc3c2=O)CCCN1c1cnc(C(N)=O)c(Nc2ccc(N3CCN(C)CC3)cc2)n1 [Example D-6, 5-[(2R,3R)-3-(6-cyclopropyl-1-oxo-1,2-dihydroisoquinolin-2-yl)-2-methylpiperidin-1-yl]-3-{[4-(4-methylpiperazin-1-yl)phenyl]amino}pyrazine-2-carboxamide] |
| 1 to 10 | 0.01 to 0.1 | CC(C)N1CCN(c2ccc(Nc3nc(N4CCC[C@@H](NC(=O)c5ccc(C6CC6)cc5F)[C@H]4C)cnc3C(N)=O)cc2)CC1 [Example D-7, 5-[(2R,3R)-3-(4-cyclopropyl-2-fluorobenzamido)-2-methylpiperidin-1-yl]-3-({4-[4-(propan-2-yl)piperazin-1-yl]phenyl}amino)pyrazine-2-carboxamide] |
| > 10 | > 10 | C[C@@H]1[C@H](NC(=O)c2ccc(C3CC3)cc2F)CCCN1c1cnc(C(N)=O)c(Nc2ccc(N3CCN(C)CC3)cn2)n1 [Example D-8, 5-[(2R,3R)-3-(4-cyclopropyl-2-fluorobenzamido)-2-methylpiperidin-1-yl]-3-{[5-(4-methylpiperazin-1-yl)pyridin-2-yl]amino}pyrazine-2-carboxamide] |
| 1 to 10 | 0.1 to 1 | C[C@@H]1[C@H](NC(=O)c2ccc(C3CC3)cc2F)CCCN1c1cnc(C(N)=O)c(Nc2ccc(N3CCN(C)CC3=O)cc2)n1 [Example D-10, 5-[(2R,3R)-3-(4-cyclopropyl-2-fluorobenzamido)-2-methylpiperidin-1-yl]-3-{[4-(4-methyl-2-oxopiperazin-1-yl)phenyl]amino}pyrazine-2-carboxamide] |
| 1 to 10 | 0.01 to 0.1 | C[C@@H]1[C@H](NC(=O)c2ccc(C(F)(F)F)cc2)CCCN1c1cnc(C(N)=O)c(Nc2ccc(N3CCN(C)CC3)cc2)n1 [Example D-11, 5-[(2R,3R)-2-methyl-3-[4-(trifluoromethyl)benzamido]piperidin-1-yl]-3-{[4-(4-methylpiperazin-1-yl)phenyl]amino}pyrazine-2-carboxamide] |
| 1 to 10 | 0.1 to 1 | C[C@@H]1[C@H](NC(=O)c2ccc(OC(F)(F)F)cc2)CCCN1c1cnc(C(N)=O)c(Nc2cnn(C)c2)n1 [Example D-95, 3-[(1-methyl-1H-pyrazol-4-yl)amino]-5-[(2R,3R)-2-methyl-3-[4-(trifluoromethoxy)benzamido]piperidin-1-yl]pyrazine-2-carboxamide] |
| 1 to 10 | > 10 | C[C@@H]1[C@H](NC(=O)c2ccc(C3CC3)cc2)CCCN1c1cnc(C(N)=O)c(Nc2ccc(N3CCC(F)(F)CC3)cc2)n1 [Example D-96, 5-[(2R,3R)-3-(4-cyclopropylbenzamido)-2-methylpiperidin-1-yl]-3-{[4-(4,4-difluoropiperidin-1-yl)phenyl]amino}pyrazine-2-carboxamide] |
| 1 to 10 | > 10 | C[C@@H]1[C@H](NC(=O)c2ccc(C3CC3)cc2)CCCN1c1cnc(C(N)=O)c(Nc2ccc(N3CCN(CC(F)(F)F)CC3)cc2)n1 [Example D-97, 5-[(2R,3R)-3-(4-cyclopropylbenzamido)-2-methylpiperidin-1-yl]-3-({4-[4-(2,2,2-trifluoroethyl)piperazin-1-yl]phenyl}amino)pyrazine-2-carboxamide] |

| Compound | IC50 (JAK3) [µM] | IC50 (LCK) [µM] |
| --- | --- | --- |
| C[C@@H]1[C@H](NC(=O)Nc2cccnc2)CCCN1c1cnc(C(N)=O)c(Nc2ccc(C3(C)CCN(C4CCCC4)CC3)cc2)n1 [Example D-9, 3-{[4-(1-cyclopentyl-4-methylpiperidin-4-yl)phenyl]amino}-5-[(2R,3R)-2-methyl-3-{[(pyridin-3-yl)carbamoyl]amino}piperidin-1-yl]pyrazine-2-carboxamide] | 0.1 to 1 | < 0.01 |
